Test results from the NIST ThermoML archive (doi:10.1016/j.jct.2005.09.003).

Experiment: xn = mol fraction of the nth substance listed
Conditions: Liquid

CCCCCCCl [1-chlorohexane] + CCCCCCCC
mass density [kg/m3]
Conditions	x2 = 0	x2 = 0.1016	x2 = 0.1996	x2 = 0.3153	x2 = 0.3948	x2 = 0.4862	x2 = 0.5938	x2 = 0.6966	x2 = 0.794	x2 = 0.9001
298.15 K, 100 kPa	873.42	852.6	833.25	811.26	796.69	780.47	762.03	745.09	729.61	713.36
298.15 K, 2130 kPa	874.73	854.08	834.69	812.8	798.13	781.96	763.56	746.66	731.16	714.88
298.15 K, 4150 kPa	876.45	855.81	836.43	814.54	799.88	783.71	765.29	748.4	732.88	716.61
298.15 K, 6180 kPa	878.31	857.67	838.25	816.37	801.68	785.49	767.08	750.15	734.61	718.33
298.15 K, 8210 kPa	879.79	859.18	839.81	817.9	803.24	787.05	768.66	751.72	736.21	719.94
298.15 K, 10230 kPa	881.44	860.8	841.43	819.53	804.88	788.69	770.3	753.38	737.85	721.55
298.15 K, 11250 kPa	882.22	861.6	842.23	820.34	805.7	789.48	771.11	754.16	738.66	722.34
298.15 K, 12260 kPa	883.01	862.42	843.03	821.13	806.5	790.3	771.9	754.95	739.44	723.13
298.15 K, 14290 kPa	884.61	864.01	844.63	822.72	808.08	791.9	773.49	756.55	741	724.69
298.15 K, 16310 kPa	886.16	865.53	846.17	824.27	809.62	793.43	775.01	758.05	742.51	726.2
298.15 K, 18340 kPa	887.68	867.07	847.69	825.8	811.15	794.94	776.55	759.59	744.03	727.69
298.15 K, 20370 kPa	889.18	868.58	849.18	827.29	812.64	796.42	778.03	761.06	745.51	729.16
298.15 K, 22390 kPa	890.65	870.05	850.64	828.77	814.1	797.89	779.48	762.51	746.97	730.59
298.15 K, 24420 kPa	892.14	871.52	852.13	830.22	815.56	799.35	780.91	763.95	748.37	732.01
298.15 K, 26450 kPa	893.54	872.95	853.55	831.64	816.97	800.75	782.33	765.32	749.76	733.39
298.15 K, 28470 kPa	894.96	874.35	854.96	833.04	818.37	802.14	783.71	766.73	751.13	734.74
298.15 K, 29490 kPa	895.65	875.05	855.64	833.73	819.06	802.85	784.39	767.4	751.81	735.41
298.15 K, 30500 kPa	896.32	875.72	856.33	834.42	819.73	803.52	785.07	768.07	752.47	736.07
298.15 K, 32530 kPa	897.71	877.11	857.7	835.79	821.11	804.86	786.42	769.4	753.8	737.38
298.15 K, 34550 kPa	899.05	878.46	859.03	837.12	822.43	806.19	787.72	770.72	755.08	738.69
298.15 K, 36580 kPa	900.38	879.77	860.35	838.43	823.74	807.48	789.01	772.01	756.36	739.94
298.15 K, 38600 kPa	901.69	881.06	861.67	839.72	825.03	808.77	790.32	773.27	757.63	741.21
298.15 K, 39620 kPa	902.33	881.71	862.31	840.38	825.68	809.4	790.96	773.9	758.25	741.83
308.15 K, 100 kPa	863.99	843.29	824.06	802.22	787.75	771.63	753.33	736.52	721.15	705.03
308.15 K, 2130 kPa	865.56	845	825.77	803.94	789.46	773.39	755.1	738.36	722.94	706.75
308.15 K, 4150 kPa	867.35	846.81	827.59	805.76	791.31	775.22	756.95	740.19	724.76	708.57
308.15 K, 6180 kPa	869.15	848.61	829.39	807.57	793.1	777.03	758.74	742	726.58	710.37
308.15 K, 8210 kPa	870.9	850.37	831.16	809.34	794.85	778.81	760.51	743.77	728.34	712.11
308.15 K, 10230 kPa	872.61	852.08	832.88	811.05	796.6	780.52	762.22	745.47	730.04	713.8
308.15 K, 11250 kPa	873.47	852.95	833.74	811.91	797.46	781.38	763.1	746.33	730.91	714.66
308.15 K, 12260 kPa	874.3	853.78	834.58	812.74	798.31	782.22	763.93	747.17	731.72	715.48
308.15 K, 14290 kPa	875.96	855.47	836.25	814.43	799.98	783.88	765.62	748.84	733.37	717.14
308.15 K, 16310 kPa	877.59	857.09	837.88	816.06	801.61	785.51	767.22	750.45	735	718.74
308.15 K, 18340 kPa	879.2	858.68	839.49	817.66	803.22	787.12	768.81	752.06	736.58	720.34
308.15 K, 20370 kPa	880.78	860.28	841.08	819.25	804.79	788.69	770.37	753.6	738.13	721.86
308.15 K, 22390 kPa	882.35	861.81	842.63	820.79	806.33	790.24	771.9	755.13	739.65	723.39
308.15 K, 24420 kPa	883.86	863.33	844.15	822.3	807.85	791.75	773.44	756.65	741.13	724.85
308.15 K, 26450 kPa	885.35	864.85	845.66	823.79	809.33	793.23	774.9	758.1	742.61	726.31
308.15 K, 28470 kPa	886.84	866.32	847.13	825.28	810.81	794.7	776.37	759.57	744.06	727.75
308.15 K, 29490 kPa	887.56	867.04	847.84	825.98	811.52	795.4	777.07	760.27	744.75	728.43
308.15 K, 30500 kPa	888.21	867.77	848.57	826.72	812.26	796.13	777.79	760.96	745.47	729.14
308.15 K, 32530 kPa	889.73	869.2	850.02	828.15	813.68	797.54	779.17	762.38	746.85	730.54
308.15 K, 34550 kPa	891.14	870.61	851.41	829.56	815.08	798.95	780.59	763.77	748.23	731.86
308.15 K, 36580 kPa	892.52	872.01	852.79	830.94	816.46	800.32	781.95	765.13	749.58	733.19
308.15 K, 38600 kPa	893.9	873.39	854.16	832.28	817.83	801.66	783.3	766.43	750.88	734.53
308.15 K, 39620 kPa	894.55	874.04	854.82	832.94	818.49	802.33	783.95	767.08	751.54	–
